Assays:
[1] = animal models, topical; cited from earlier work
acute pain = settings: 34 subjects
Procedure: As indicated, 10 mL of venous blood was collected throughout the study period, at time intervals likely to capture peak and trough levels (Greenblatt D J et al. (1985). Arch Otolaryngol 111: 2988-3000); (Baumann L S, et al. (2010). J Drugs Dermatol 9: 1500-1504). Each subject provided self-rated pain evaluations at those same time intervals, focusing on pain at the identified site of acute pain and of drug application, using the 1-10 Visual Analog Scale (VAS) (Meier T, et al. (2003). Pain 106: 151-158).
The central data used to describe efficacy was the 10-point VAS. While this measure is subjective, the study subjects were requested specifically to be consistent in their pain estimates.

rat cornea = settings: topical application onto the rat cornea, cited from earlier work

methylsulfonylmethane [MSM]
Toxicity when administered topically (in words) [1]: very low toxicity

CCN(CC)CC(=O)Nc1c(C)cccc1C [lidocaine, 2-(diethylamino)-N-(2,6-dimethylphenyl)acetamide]
Number of subjects with maximum pain relief at the 1 hour point (acute pain; doses at 0 and 4 h): 9 subjects | Subjects whose time elapsed to reach maximal pain reduction was 1 h (acute pain; doses at 0 and 4 h): 27% | Subjects whose time elapsed to reach maximal pain reduction was 3 h (acute pain; doses at 0 and 4 h): 21% | Subjects whose time elapsed to reach maximal pain reduction was 5 h (acute pain; doses at 0 and 4 h): 18% | Subjects whose time elapsed to reach maximal pain reduction was 7 h (acute pain; doses at 0 and 4 h): 9% | Subjects whose time elapsed to reach maximal pain reduction was 9 h (acute pain; doses at 0 and 4 h): 12% | Subjects whose time elapsed to reach maximal pain reduction was 11 h (acute pain; doses at 0 and 4 h): 6% | Number of subjects with pain relief at 50% or better (acute pain; maximal pain reduction): 28 of 34 | Subjects with pain reduction of 50% or greater (acute pain; maximal pain reduction): 82%

O=C(O)CN(CCN(CC(=O)O)CC(=O)O)CC(=O)O [EDTA, ethylenediaminetetraacetic acid]
Ocular uptake of C14 EDTA, applied with MSM (rat cornea; with MSM): uptake of the C^14 EDTA in all tested ocular tissues | Ocular penetration of EDTA, without MSM (rat cornea; without MSM): did not penetrate the eye

Reference: patent US11771669B2, “Topical composition and delivery system and its use” (SBG MEDICAL TECHNOLOGIES, INC., priority 2012, dated 2023)
